Assay results published in patent US8110654B2, “T cell epitope peptides of ovarian cancer anti-idiotypic antibody 6B11 and use thereof” (Peking University People;s Hospital, priority 2006, dated 2012).

Legend:
[1] = tested on: T2 cells loaded with corresponding peptides; assay: 51Cr release assay, peptide-CTLs against T2 cells loaded with peptide; format: cell-based; conditions: for killing of T2 cells loaded with the peptide by peptide-CTLs: CTLs stimulated three periods, 4 hours, effector/target 40:1 to 5:1; for killing of peptide-stimulated T2 cells after MHC class I molecule blocking: anti-human MHC class I antibodies 1:20 dilution
Excerpt: The freeze-stored autologous lymphocytes were stimulated by DCs loaded with the peptides and KLH, to obtain peptide-specific CTLs (peptide-CTLs). One period consists of 7 days. On Day 3 of every period, 10 U/ml rh IL-2 was supplemented. Finally, peptide-CTLs were obtained after a 3-period stimulation.
6B11-CTLs stimulated for one period were harvested and used as reacting cells in cell proliferation assay, ELISA cytokine assay and IFN-γ ELISPOT assay. 6B11-CTLs and peptide-CTLs stimulated for 3 periods were harvested for use in ^51Cr release assay as effector cells.
6B11-CTLs and peptide-CTLs stimulated for three periods were used as effector cells. T2 cells, HOC1A cells and HLE cells loaded with corresponding peptides were used as target cells. Standard ^51Cr release assay was carried out for 4 hours. Target cells (1×10^6 cells) were placed into 0.5 ml RPMI 1640 culture medium (containing 5% fetal bovine serum). 100 μCi Na2^51CrO4 was added. The labeling reaction was allowed to continue overnight at 37° C. Then the cells were washed by cold RPMI 1640 culture medium (containing 5% fetal bovine serum) for three times to terminate the labeling reaction. Target cells (5×10^3 cells) were placed into 100 μl culture medium and then mixed with an equal volume of effector cells in a 96-well plate. The ratio of effector/target was set as 40:1, 20:1, 10:1 and 5:1. Spontaneous release wells contained target cells and the culture medium, while the maximal release wells contained target cells and corresponding culture medium containing 1% Triton X-100. The plates were gently spun using a plate centrifuge for 2 minutes and then co-incubated at 37° C. under 5% CO2 for 4 hours. The plates were gently spun again. 100 μl of supernatant per well was transferred to a counting tube and labeled as appropriate. The cpm values were determined by a γ counter. All assays were performed in duplicate. The ratio of cpm values of the spontaneous release well to the maximal release well was <20%. Killing ratio (%)=[(mean cpm value of the experimental wells−mean cpm value of the spontaneous release wells)/(mean cpm value of the maximal release wells−mean cpm value of the spontaneous release wells)]×100
For further analyzing the above-mentioned killing effect, the target cells were blocked by applying anti-human MHC class I antibodies, for evaluating the effect of CTL epitope peptides. Firstly, the optimal concentration of MHC class I antibodies was determined to be 1:20 dilution (FIG. 9). […] The killing effect were not disturbed by MHC class I antibodies, i.e., unrelated to the effect of CD8 T cells. […] Its killing effect was disturbed by MHC class I antibodies, which was mainly mediated by CD8 T cells (FIG. 10). […] The former was unrelated to CD8 T cells whereas the latter was mediated by CD8 T cells.

HOC1A cells = assay: Cytokine ELISA of supernatant of CTLs co-incubated with HOC1A cells; format: cell-based; conditions: CTL:HOC1A 40:1, 48 hours, double-antibody-sandwich ELISA
Description: 6B11-CTLs, VH CDR3-CTLs and VL CDR3-CTLs were mixed with target HOC1A cells in the ratio of 40:1 respectively and co-incubated at 37° C. under 5% CO2 for 48 hours. The supernatant was harvested, and the contents of IL-2, IFN-γ and IL-4 determined by double-antibody-sandwich ELISA. […] VH CDR3 peptide- and VL CDR3 peptide-specific CTLs could also secrete high levels of IL-2 and IFN-γ while the secretion of IL-4 was in a low level, which was in a similar trend as that of the immune response induced by anti-idiotype antibody 6B11. This indicated from a different perspective that VH CDR3 peptide and VL CDR3 peptide were involved in the induction of T cell immune response derived from anti-idiotype antibody 6B11 (FIG. 13).

Sequence	killing of T2 cells loaded with the peptide by peptide-CTLs [1]	killing of peptide-stimulated T2 cells after MHC class I molecule blocking [1]	IFN-γ secretion by CTLs (HOC1A cells)	IL-2 secretion by CTLs (HOC1A cells)	IL-4 secretion by CTLs (HOC1A cells)
IALITTKIAWYFDV (VH CDR3 region peptide) [VH CDR3 peptide]	could kill	could still kill	high levels	high levels	low level
SQSTHFPYT (VL CDR3 region peptide)	could also kill	significantly inhibited	high levels	high levels	low level
